According to patent US20230372318A1, “METHODS FOR TREATING A SUBJECT HAVING MULTIPLE SYSTEM ATROPHY” (Theravance Biopharma R&D IP, LLC, priority 2022, published 2023):

Tested on: subjects with primary autonomic failures (MSA, PD, or PAF) and symptomatic nOH
Experiment: Phase 3 22-week randomized withdrawal study in symptomatic nOH (Example 7)
Format: in vivo, human
Set-up: OHSA composite score, LS Mean / OHSA composite score, Mean / OHSA composite score, Median / OHSA composite score, LS Mean Difference / OHDAS item 1 (standing for a short time) score, Mean / OHDAS item 1 (standing for a short time) score, Median / OHDAS item 1 (standing for a short time) score, LS Mean / OHDAS item 1 (standing for a short time) score, LS Mean Difference: scale not given here
Details: for OHSA composite score, Mean / OHSA composite score, Median / OHSA composite score, LS Mean Difference / OHSA composite score, LS Mean: change at week 22, end of 6-week double-blind period; for OHDAS item 1 (standing for a short time) score, LS Mean / OHDAS item 1 (standing for a short time) score, Mean / OHDAS item 1 (standing for a short time) score, Median / OHDAS item 1 (standing for a short time) score, LS Mean Difference: week 22, end of 6-week double-blind period
Procedure: The study consisted of a 16-week open-label (OL) treatment period with ampreloxetine followed by a 6-week double-blind randomized withdrawal period where subjects were administered either ampreloxetine or placebo.
Eligible subjects were either (i) completers of the study of Example 6 (“Completers Group”), or (ii) symptomatic nOH subjects meeting all applicable study inclusion criteria and none of the applicable exclusion criteria (“De Novo Group”).
A 4-week screening period applied to the De Novo Group only and the Screening visit was conducted in clinic for all De Novo Group subjects.
A total of 203 subjects entered this study (170 subjects from Example 6 (85 from the ampreloxetine group and 85 from the placebo group) and 33 de novo subjects). During the OL period, 55 subjects discontinued treatment. At 16 weeks, 64 subjects were randomized to the ampreloxetine group (6 subjects discontinued the study) and 64 subjects were randomized to the placebo group (3 subjects discontinued the study). A total of 119 subjects completed the study. Of the 128 subjects entering the randomized period, 40 subjects had MSA (31%); 68 subjects had PD (53%); and 20 subjects had PAF (16%) (in each category, the subjects were split equally between ampreloxetine and placebo).
Beginning on Day 2, subjects received a single dose of 10 mg ampreloxetine once daily (QD) and continued thereafter for the 16-week duration of the OL treatment period. Following this 16-week OL treatment period, subjects were randomized to either continue on the active treatment or placebo (“PBO”) for a period of 6 weeks.
Subjects enrolled into the OL period of the study had visits scheduled for Day 15, Day 29, and every 4 weeks thereafter for assessments as outlined in the Schedule of Study Procedures. […] Those subjects not meeting this continuation criterion were discontinued and underwent an end of study visit. The end of study visit was completed within 2 weeks from the date of the last dose.
Following the completion of a total of 16 weeks OL treatment with ampreloxetine (V6), subjects were assessed for randomization in a 1:1 manner. Eligible subjects received 6 weeks of double-blind treatment of ampreloxetine or PBO once daily. Only subjects with OHSA #1 score of ≤7 were eligible for randomization for the double-blind treatment period.
Exploratory assessments included: orthostatic standing test; NMSS; EQ-5D-5L; HADS; and BSFC-s. For subjects with PD, exploratory assessments included: Unified Parkinson's Disease Rating Scale (UPDRS); and Parkinson's Disease Questionaire-8 (PDQ-8). For subjects with MSA, exploratory assessments included: Unified Multiple System Atrophy Rating Scale (UMSARS); and Composite Autonomic Symptom Score-31 (COMPASS-31).
The secondary endpoints included: • (a) Change from baseline in OHSA #1 at Week 6 post randomization (V9, D155); • (b) Change from baseline in OHSA composite score at Week 6 post randomization (V9, D155); • (c) Change from baseline in OHDAS composite score at Week 6 post randomization (V9, D155); • (d) Change from baseline in PGI-S at Week 6 post randomization (V9, D155); • (e) Change from baseline in percentage of time spent in standing position as measured by a wearable device at Week 6 post randomization (V9, D155); and • (f) Change from baseline in average number of steps taken as measured by a wearable device at Week 6 post randomization (V9, D155).

[1] = MSA subjects, Pre treatment baseline OHSA1 <7
[2] = MSA subjects, Pre treatment baseline OHSA1 >2
[3] = MSA subjects, Pre treatment baseline OHSA1 >=7
[4] = MSA subjects, Pre treatment baseline OHSA Composite <5.3
[5] = MSA subjects, Pre treatment baseline OHSA Composite >=5.3
[6] = MSA subjects, RW baseline OHSA1 <=2
[7] = MSA subjects, RW baseline OHSA Composite <2.5
[8] = MSA subjects, RW baseline OHSA Composite >=2.5
[9] = MSA subjects, UMSARS Part IV <4
[10] = MSA subjects, UMSARS Part IV <4, vs placebo
[11] = MSA subjects, UMSARS Part IV >=4
[12] = MSA subjects, UMSARS Part IV >=4, vs placebo
[13] = MSA subjects, nOH onset <1.6 years
[14] = MSA subjects, nOH onset <1.6 years, vs placebo
[15] = MSA subjects, nOH onset >=1.6 years
[16] = MSA subjects, nOH onset >=1.6 years, vs placebo
[17] = MSA subjects, end of 6-week double-blind randomized period, FIG. 3
[18] = MSA subjects, week 22, 10 mg, N 19

**Q.** Which results are given for Fc1cc(F)c(OCc2ccccc2C2CCNCC2)c(F)c1 [Ampreloxetine, 4-[2-(2,4,6-trifluorophenoxymethyl)phenyl]piperidine]?
**A.** OHSA composite score, Mean [1]: −0.11; OHSA composite score, Median [1]: −0.1; OHSA composite score, LS Mean Difference (MSA subjects, Pre treatment baseline OHSA1 <7, vs placebo): −1.08; OHSA composite score, LS Mean [2]: −0.77; OHSA composite score, Mean [2]: −0.96; OHSA composite score, Median [2]: −0.6; OHSA composite score, LS Mean Difference (MSA subjects, Pre treatment baseline OHSA1 >2, vs placebo): −1.99; OHSA composite score, LS Mean [3]: 0.41; OHSA composite score, Mean [3]: 0.00; OHSA composite score, Median [3]: 0.5; OHSA composite score, LS Mean Difference (MSA subjects, Pre treatment baseline OHSA1 >=7, vs placebo): −1.31; OHSA composite score, LS Mean [4]: −0.71; OHSA composite score, Mean [4]: −0.56; OHSA composite score, Median [4]: −0.05; OHSA composite score, LS Mean Difference (MSA subjects, Pre treatment baseline OHSA Composite <5.3, vs placebo): −1.96; OHSA composite score, LS Mean [5]: 0.76; OHSA composite score, Mean [5]: 0.46; OHSA composite score, Median [5]: 0.3; OHSA composite score, LS Mean Difference (MSA subjects, Pre treatment baseline OHSA Composite >=5.3, vs placebo): −0.97; OHSA composite score, LS Mean [6]: 0.74; OHSA composite score, Mean [6]: 0.86; OHSA composite score, Median [6]: 0.25; OHSA composite score, LS Mean Difference (MSA subjects, RW baseline OHSA1 <=2, vs placebo): −0.91; OHSA composite score, LS Mean [7]: 0.95; OHSA composite score, Mean [7]: 0.98; OHSA composite score, Median [7]: 0.4; OHSA composite score, LS Mean Difference (MSA subjects, RW baseline OHSA Composite <2.5, vs placebo): −0.90; OHSA composite score, LS Mean [8]: −0.92; OHSA composite score, Mean [8]: −0.90; OHSA composite score, Median [8]: −0.5; OHSA composite score, LS Mean Difference (MSA subjects, RW baseline OHSA Composite >=2.5, vs placebo): −1.96; OHSA composite score, LS Mean [9]: 0.01; OHSA composite score, Mean [9]: −0.04; OHSA composite score, Median [9]: 0.25; OHSA composite score, LS Mean Difference [10]: −1.70; OHDAS item 1 (standing for a short time) score, LS Mean [9]: −0.3; OHDAS item 1 (standing for a short time) score, Mean [9]: −0.3; OHDAS item 1 (standing for a short time) score, Median [9]: 0.0; OHDAS item 1 (standing for a short time) score, LS Mean Difference [10]: −2.8; OHSA composite score, LS Mean [11]: −0.17; OHSA composite score, Mean [11]: −0.15; OHSA composite score, Median [11]: −0.15; OHSA composite score, LS Mean Difference [12]: −1.44; OHDAS item 1 (standing for a short time) score, LS Mean [11]: 0.5; OHDAS item 1 (standing for a short time) score, Mean [11]: 1.0; OHDAS item 1 (standing for a short time) score, Median [11]: 1.0; OHDAS item 1 (standing for a short time) score, LS Mean Difference [12]: 1.9; OHSA composite score, LS Mean [13]: 0.48; OHSA composite score, Mean [13]: 0.43; OHSA composite score, Median [13]: 0.50; OHSA composite score, LS Mean Difference [14]: −1.33; OHDAS item 1 (standing for a short time) score, LS Mean [13]: −0.3; OHDAS item 1 (standing for a short time) score, Mean [13]: −0.3; OHDAS item 1 (standing for a short time) score, Median [13]: 0.0; OHDAS item 1 (standing for a short time) score, LS Mean Difference [14]: −2.4; OHSA composite score, LS Mean [15]: −0.45; OHSA composite score, Mean [15]: −0.41; OHSA composite score, Median [15]: −0.20; OHSA composite score, LS Mean Difference [16]: −1.56; OHDAS item 1 (standing for a short time) score, LS Mean [15]: −0.3; OHDAS item 1 (standing for a short time) score, Mean [15]: −0.1; OHDAS item 1 (standing for a short time) score, Median [15]: 0.0; OHDAS item 1 (standing for a short time) score, LS Mean Difference [16]: −0.8; OHDAS composite score, change (MSA subjects, 6-week double-blind randomized period, placebo +0.97, p=0.196): +0.16; Systolic blood pressure upon standing for 3 minutes, mean change (MSA subjects, 6-week double-blind randomized period, placebo −12.4): +6.1 mmHg; Quality of life, EQ-5D-5L visual analog scale (MSA subjects, FIG. 4, vs placebo): quality of life declines less or improves; OHDAS walking long time [17]: favor placebo; OHSA and OHDAS composite scores and individual subscores [17]: all favor ampreloxetine; OHSA item 1 score, change (MSA subjects, end of 6-week double-blind randomized withdrawal period, placebo +1.8, p=0.0861): +0.3; Anxiety Total Score, Change from Baseline, LS Mean Difference (SE) (MSA subjects, week 22, 10 mg vs placebo, P-value 0.0343): −1.26 (0.573); Anxiety Total Score, Change from Baseline, LS Mean (SE) [18]: −1.05 (0.405); Anxiety Total Score, Change from Baseline, Mean (SD) [18]: −1.05 (1.900); Anxiety Total Score, Change from Baseline, Median [18]: −1.00; OHQ composite scores for subgroups (subgroups of MSA subjects, week 22, FIG. 6): all favored ampreloxetine
